Literature values as cited in paper PMC9322451 (Clinical Pharmacology in Drug Development, 2022).

Key:
[1] = parameters: method as in unpublished data; settings: oral or intravenous 14C‐brensocatib, rats; ref unpublished data; cited from earlier work
CYP2D6 = tested on: CYP2D6; parameters: method as in unpublished data; settings: ref unpublished data, read-out: half maximal inhibitory concentration; cited from earlier work
CYP3A4/5 = tested on: CYP3A4/5; parameters: method as in unpublished data; settings: ref unpublished data, read-out: half maximal inhibitory concentration; cited from earlier work
CYP2E1 = tested on: CYP2E1; parameters: method as in unpublished data; settings: ref unpublished data; cited from earlier work
P‐gp = tested on: P‐gp; parameters: method as in unpublished data; settings: ref unpublished data, read-out: half maximal inhibitory concentration; cited from earlier work
[2] = tested on: multidrug and toxin extrusion transporters; parameters: method as in unpublished data; settings: ref unpublished data, read-out: half maximal inhibitory concentration; cited from earlier work
neutrophil elastase = settings: 10 and 25 mg, patients with non–cystic fibrosis bronchiectasis, WILLOW study; cited from earlier work

Cn1c(=O)oc2ccc(-c3ccc(C[C@@H](C#N)NC(=O)[C@@H]4CNCCCO4)cc3)cc21 [Brensocatib]
brensocatib in plasma, share of total radioactivity exposure [1]: > 80%
most abundant metabolite in plasma, share of total radioactivity exposure [1]: ≈ 3%
IC50 (CYP2D6): > 30 µM
IC50 (CYP3A4/5): > 30 µM
CYP inhibition (CYP2E1): no effect
IC50 (P‐gp): > 11 µM
IC50 [2]: > 11 µM
effect on neutrophil elastase and clinical outcomes (neutrophil elastase): reduced neutrophil elastase and improved clinical outcomes
